Values after ≈ are worked out from the molar mass of the structure shown. Values joined by “and” are separate entries in the source; they are usually repeats but may differ in a detail not shown here. Equal values may be shown once. One block for each compound: values may come before it.
What was measured:
[1] = Metabolic stability in mouse liver microsomes; type: in vitro ADME, mouse (CD-1 Mouse)
[2] = test system: VIM-expressing sarcoma cell lines HT-1080, RD, GCT; type: cell-based; conditions: for improvement in potency: VIM-expressing sarcoma cell lines, compared to FiVe1
HT-1080 cells = test: Cell proliferation assay; type: cell-based; conditions: for improvement in selectivity: cell type selectivity (vs MCF-7), compared to FiVe1; for SI (HT-1080 vs MCF-7): selectivity index, ratio of IC50 values HT-1080 and MCF-7
[3] = test system: vimentin (VIM) Ser56 phosphorylation; test: Western blot of VIM Ser56 phosphorylation in HT-1080, RD and GCT sarcoma cells; type: cell-based; conditions: 24 h, HT-1080, RD and GCT cells
[4] = Pharmacokinetic study in mouse; type: in vivo
[5] = HPLC-based kinetic solubility in DPBS; type: physicochemical; conditions: for improvement in solubility: compared to FiVe1, DPBS
[6] = test system: VIM-expressing mesenchymal cancer cell lines; conditions: anti-proliferative effects compared with cells that lack VIM expression; cited from earlier work
panel of ~100 kinases = conditions: concentrations up to 10 μM; cited from earlier work
[7] = Metabolite identification in incubations with mouse hepatocytes; type: in vitro ADME; conditions: FiVe1 incubated with mouse hepatocytes, LC-MS/MS, peak area λ = 252–420 nm

T1/2 ([1]; mouse liver microsomes): 42.7 min
Remaining (T= 60 min) ([1]; mouse liver microsomes, 60 min): 35.7%
CLint(mic) ([1]; mouse, microsomes): 32.5 µL/min/mg
Compound: 3-(3-chloro-5-(4-(8-chlorocinnolin-4-yl)piperazin-1-yl)phenoxy)propane-1,2-diol [Compound 11e]

Compound: Clc1cc(Cl)cc(N2CCN(c3cnnc4c(Cl)cccc34)CC2)c1 [Compound 4a, 8-chloro-4-(4-(3,5-dichlorophenyl)piperazin-1-yl)cinnoline]
improvement in potency [2]: ~ 4 fold

Compound: N#Cc1cc(Cl)cc(N2CCN(c3cnnc4c(Cl)cccc34)CC2)c1 [Compound 4b, 3-chloro-5-(4-(8-chlorocinnolin-4-yl)piperazin-1-yl)benzonitrile]
improvement in potency [2]: ~ 4 fold

Compound: COc1cc(OC)cc(N2CCN(c3cnnc4c(Cl)cccc34)CC2)c1 [Compound 4c, 8-chloro-4-(4-(3,5-dimethoxyphenyl)piperazin-1-yl)cinnoline]
improvement in potency [2]: > 20 fold
improvement in selectivity (HT-1080 cells): > 15 fold

Compound: COc1cccc(N2CCN(c3cnnc4c(Cl)cccc34)CC2)c1 [Compound 4d, 8-chloro-4-(4-(3-methoxyphenyl)piperazin-1-yl)cinnoline]
improvement in potency [2]: > 2 fold
improvement in selectivity (HT-1080 cells): > 2 fold

Tlast ([4]; ip 1 mg/kg): 4 h
improvement in bioavailability ([4]; oral, compared to FiVe1, assuming dose proportional absorption): ~ 4 fold
Compound: COc1cc(Cl)cc(N2CCN(c3cnnc4c(Cl)cccc34)CC2)c1 [Compound 4e, 8-chloro-4-(4-(3-chloro-5-methoxyphenyl)piperazin-1-yl)cinnoline]
VIM Ser56 phosphorylation (Western immunoblot) [3]: induce VIM Ser56 phosphorylation at 10-fold lower concentration (100 nM)
improvement in potency [2]: > 20 fold
improvement in selectivity (HT-1080 cells): > 10 fold and 19 fold and > 15 fold

Compound: Clc1cc(N2CCCC2)cc(N2CCN(c3cnnc4c(Cl)cccc34)CC2)c1 [Compound 4f, 8-chloro-4-(4-(3-chloro-5-(pyrrolidin-1-yl)phenyl)piperazin-1-yl)cinnoline]
inhibition of mesenchymal cancer cell growth (in words) [2]: total loss in activity

Compound: Oc1cc(Cl)cc(N2CCN(c3cnnc4c(Cl)cccc34)CC2)c1 [Compound 4g, 3-chloro-5-(4-(8-chlorocinnolin-4-yl)piperazin-1-yl)phenol]
improvement in potency [2]: > 20 fold
improvement in selectivity (HT-1080 cells): > 10 fold

Compound: Nc1cc(Cl)cc(N2CCN(c3cnnc4c(Cl)cccc34)CC2)c1 [Compound 4i, 3-chloro-5-(4-(8-chlorocinnolin-4-yl)piperazin-1-yl)aniline]
improvement in potency [2]: ~ 2 fold
improvement in selectivity (HT-1080 cells): ~ 2 fold

IC50 ([2]; Homo sapiens, HT-1080, read-out: IC50 values): ~10 µM
Compound: CC(=O)Nc1cc(Cl)cc(N2CCN(c3cnnc4c(Cl)cccc34)CC2)c1 [Compound 4j, N-(3-chloro-5-(4-(8-chlorocinnolin-4-yl)piperazin-1-yl)phenyl)acetamide]

Compound: C[C@H]1CN(c2cnnc3c(Cl)cccc23)CCN1c1cc(Cl)cc(Cl)c1 [Compound 7a, (S)-8-chloro-4-(4-(3,5-dichlorophenyl)-3-methylpiperazin-1-yl)cinnoline]
loss in antiproliferative potency ([2]; compared with its analog 4a): ~ 2 fold

Compound: Clc1cccc(N2CCN(c3ccnc4c(Cl)cccc34)CC2)c1 [Compound 10d, 8-chloro-4-(4-(3-chlorophenyl)piperazin-1-yl)quinoline]
VIM Ser56 phosphorylation (Western immunoblot) [3]: inactive

solubility at 16 h ([5]; DPBS, pH 7.4): 68 µM (≈ 28.4 µg/mL)
improvement in solubility [5]: > 40 fold
Compound: NCCOc1cc(Cl)cc(N2CCN(c3cnnc4c(Cl)cccc34)CC2)c1 [Compound 11a, 2-(3-chloro-5-(4-(8-chlorocinnolin-4-yl)piperazin-1-yl)phenoxy)ethan-1-amine]
SI (HT-1080 vs MCF-7) (HT-1080 cells): >5

improvement in solubility [5]: > 40 fold
Compound: CN(C)CCOc1cc(Cl)cc(N2CCN(c3cnnc4c(Cl)cccc34)CC2)c1 [Compound 11b, 2-(3-chloro-5-(4-(8-chlorocinnolin-4-yl)piperazin-1-yl)phenoxy)-N,N-dimethylethan-1-amine]

improvement in solubility [5]: > 40 fold
Compound: CN(C)CCCOc1cc(Cl)cc(N2CCN(c3cnnc4c(Cl)cccc34)CC2)c1 [Compound 11c, 3-(3-chloro-5-(4-(8-chlorocinnolin-4-yl)piperazin-1-yl)phenoxy)-N,N-dimethylpropan-1-amine]

Compound: OCCOc1cc(Cl)cc(N2CCN(c3cnnc4c(Cl)cccc34)CC2)c1 [Compound 11d, 2-(3-chloro-5-(4-(8-chlorocinnolin-4-yl)piperazin-1-yl)phenoxy)ethan-1-ol]
improvement in potency [2]: > 3 fold
SI (HT-1080 vs MCF-7) (HT-1080 cells): >40

Compound: COCCOc1cc(Cl)cc(N2CCN(c3cnnc4c(Cl)cccc34)CC2)c1 [Compound 11f, 8-chloro-4-(4-(3-chloro-5-(2-methoxyethoxy)phenyl)piperazin-1-yl)cinnoline]
SI (HT-1080 vs MCF-7) (HT-1080 cells): >12

IC50 (HT-1080 cells; Homo sapiens, HT-1080, 72 h, read-out: IC50 HT-1080): 13.6 ± 1.18 µM
Compound: COC(COc1cc(Cl)cc(N2CCN(c3cnnc4c(Cl)cccc34)CC2)c1)OC [Compound 11g, 8-chloro-4-(4-(3-chloro-5-(2,2-dimethoxyethoxy)phenyl)piperazin-1-yl)cinnoline]
SI (HT-1080 vs MCF-7) (HT-1080 cells): >2

Compound: COC(=O)CCOc1cc(Cl)cc(N2CCN(c3cnnc4c(Cl)cccc34)CC2)c1 [Compound 11j, methyl 3-(3-chloro-5-(4-(8-chlorocinnolin-4-yl)piperazin-1-yl)phenoxy)propanoate]
SI (HT-1080 vs MCF-7) (HT-1080 cells): >20

Compound: O=C(O)CCOc1cc(Cl)cc(N2CCN(c3cnnc4c(Cl)cccc34)CC2)c1 [Compound 11k, 3-(3-chloro-5-(4-(8-chlorocinnolin-4-yl)piperazin-1-yl)phenoxy)propanoic acid]
SI (HT-1080 vs MCF-7) (HT-1080 cells): >13

Tlast ([4]; po 25 mg/kg): 18 h
% Peak Area [7]: 6%
Compound: Clc1cccc(N2CCN(c3cnnc4c(Cl)cccc34)CC2)c1 [FiVe1]
VIM Ser56 phosphorylation (Western immunoblot) [3]: induced Ser56 phosphorylation at 1 μM but not at 100 nM
cell-based therapeutic index [6]: > 10
kinase inhibition (panel of ~100 kinases): not found to be an inhibitor of any cell cycle or cytokinesis-related kinase

Source: paper PMC10377566 (European journal of medicinal chemistry, 2022)
